Measured values as given in US9751824B2, “Acetyl salicyclic acid dimers, synthesis thereof, and uses thereof to prevent and treat complement-mediated disorders” (Aurin Biotech Inc., priority 2013, dated 2017).

Legend:
[1] = test system: classical complement pathway; assay: CH50 assay, hemolysis of sensitized human red blood cells by zymosan-activated human serum; type: cell-based; conditions: for IC50: Erythrocyte, zymosan-activated human serum, read-out: IC50, protection of human red blood cells from complement attack
Protocol: (§1) To evaluate the strength of blockade of the classical complement pathway achieved by DAS-1 and DAS-2, a standard CH50 assay was employed. Normal human red blood cells were sensitized by incubation overnight with rabbit anti red blood cell antibody. Then dilutions of serum activated by zymosan, with and without various amounts of DAS-1, DAS-2, or the precursor acetylsalicylic acid, were incubated with the sensitized red blood cells for 1 hour at 37° C. The incubates were centrifuged at 5,000 rpm for 10 min. The hemoglobin released into the serum from red blood cells that had been destroyed by complement attack, was determined by reading the optical density (OD) at 405 nm. As a positive control, red blood cells were 100% lysed with water, and as a negative control, no serum was added to the incubate.
(§2) DAS-1 and DAS-2 protected human red blood cells from complement attack by zymogen activated serum of human, rat, cat, and dog. FIG. 3A illustrates the result for DAS-1.

[2] = target: T1, C5b-9 membrane attack complex (Homo sapiens, UniProt P02748); assay: Western blot of red blood cell membranes, classical pathway (FIG. 4A); type: cell-based; conditions: zymosan-activated human serum, alternative pathway blocked by antibodies to properdin and Factor D
T1 construct: from tissue; host or cells: human serum, with human red blood cells as the target membrane
Protocol: To determine at which stage of the complement cascade blockade was occurring, a variation of the CH50 assay was carried out. Instead of measuring hemolysis, western blot analyses of red blood cell membranes were carried out to determine which serum complement proteins were converted into activated complement products that became attached to susceptible membranes. Such attachment only occurs up to the stage of blockade. At stages beyond the blockade, they remain unchanged in the serum. Undiluted human serum was treated for 30 min with DAS-1, DAS-2, or acetyl salicylic acid. Then antibody-conjugated red blood cells in an equal volume were added. The mixtures were incubated at 37° C. for 1 h. They were then treated with a lysis buffer followed by a loading buffer for western blots. Equal amounts of protein from each sample were loaded onto gels and separated by 10% SDS-PAGE. Following SDS-PAGE, proteins were transferred to a PVDF membrane. The membranes were then treated with various primary antibodies followed by labeled secondary antibodies using well established techniques. Bands recognized by the antibodies were visualized by use of an enhanced chemiluminescence system and exposure to photographic film. For probing the same membrane with different antibodies, the membranes were treated with stripping buffer and then treated as before with a different primary antibody. […] The adjacent lane illustrates the effect of adding to the serum zymosan to activate complement, and antibodies to properdin and Factor D to block the alternative pathway. Sensitized red blood cells then become hemolyzed by classical pathway attack. Native serum proteins are consumed and become incorporated into the red cell membranes. C1q was not metabolized, but the band was intensified due to its dissociation from the C1 complex. Native C3 was no longer detected because it had been cleaved, and the C3b fragment had become covalently attached to the membrane. Its degradation product C3d was detected. C4 was no longer detected because it had similarly been cleaved and the C4b fragment attached to the membrane and metabolized into its degradation product C4d. This fragment was also detected. C5 was cleaved and a band for the C5a product detected. Finally, the C5b-9 membrane attack complex, which had formed on the red cell membrane causing its hemolysis, was detected. The next two lanes show the effects of incubation in the presence of DAS-1, DAS-2. […] This establishes that the block provided by DAS-1 and DAS-2 was at the MAC assembly stage.

[3] = test system: C3 convertase of the alternative pathway; assay: Western blot of red blood cell membranes, alternative pathway with C1 inhibitor (FIG. 5); type: cell-based, human; conditions: 1 microM; serum 15 fold dilution, zymosan, C1 inhibitor 1.8 micrograms/mL
Protocol: To determine the effects of DAS-1 and DAS-2 on the alternative pathway, further experiments were carried out as shown in FIG. 5. […] To these mixtures human RBCs (5×10^9) were added. The mixtures were incubated for 1 h at 37° C. and centrifuged at 5,000 rpm for […]. The pellets were washed two times with Hank's balanced salt solution (HBSS) and treated with sample loading buffer for SDS-PAGE and immunoblotting. The buffer consisted of 50 mM Tris (pH 6.8), 0.1% SDS, 0.1% bromophenol blue and 10% glycerol. To preserve the molecular complexes that had formed, mild conditions for SDS-PAGE were followed. The sample loading buffer used was 50 mM Tris (pH 6.8), 1% SDS, 0.1% bromophenol blue and 10% glycerol and 2% beta-mercaptoethanol.
However an independent band for C3b was not detected. […] Lanes 3 and 4 show the results obtained in the presence of 1 microM of DAS-1 or DAS-2. […] Instead, strong bands for the earlier steps of PC3b and PC3bB appeared.

[4] = test system: classical complement pathway; assay: CH50 assay, hemolysis of sensitized human red blood cells by zymosan-activated cat serum; type: cell-based; conditions: Felis catus, Erythrocyte, read-out: IC50, protection of human red blood cells from complement attack
Protocol: as §1, §2

C4 = assay: Fluorometric binding to immobilized protein (FIG. 6); set-up: species or system human; conditions: compound 100 microgm/mL; protein 32 ng/mL
Protocol: (§3) The next set of experiments directly tested the binding of DAS-1 and DAS-2 to properdin, Factor D and complement proteins. These proteins were immobilized on microwell plates in a concentration range of 1-32 ng/mL. DAS-1 and DAS-2 were then added at a concentration of 100 microgm/mL and the solutions incubated as previously described. DAS-1 and DAS-2 binding to the proteins was then assayed according to a previously published fluorometric method except that the excitation frequency was […] and the emission frequency […]. […] Such binding explains why DAS-1 and DAS-2 block the alternative pathway at the stage where Factor D cleaves PC3B to form PC3Bb, and both the classical and alternative pathways at the stage where C9 adds to C5b678. […] There was no binding of DAS-1 or DAS-2 to properdin and only background fluorescence was observed.

[5] = test system: classical complement pathway; assay: CH50 assay, hemolysis of sensitized human red blood cells by zymosan-activated rat serum; type: cell-based; conditions: Erythrocyte, read-out: IC50, protection of human red blood cells from complement attack
Protocol: as §1, §2

C9 = target: T2, C9 (Homo sapiens, UniProt P02748); assay: Fluorometric binding to immobilized protein (FIG. 6); conditions: compound 100 microgm/mL; protein immobilized 1-32 ng/mL
T2 construct: purchased Sigma, St. Louis, MO
Protocol: as §3

C2 = target: T3, C2 (Homo sapiens, UniProt P06681); assay: as above; conditions: compound 100 microgm/mL; protein 32 ng/mL
T3 construct: purchased Sino Biologicals Inc., Beijing, China
T3 sequence (P06681 21-752): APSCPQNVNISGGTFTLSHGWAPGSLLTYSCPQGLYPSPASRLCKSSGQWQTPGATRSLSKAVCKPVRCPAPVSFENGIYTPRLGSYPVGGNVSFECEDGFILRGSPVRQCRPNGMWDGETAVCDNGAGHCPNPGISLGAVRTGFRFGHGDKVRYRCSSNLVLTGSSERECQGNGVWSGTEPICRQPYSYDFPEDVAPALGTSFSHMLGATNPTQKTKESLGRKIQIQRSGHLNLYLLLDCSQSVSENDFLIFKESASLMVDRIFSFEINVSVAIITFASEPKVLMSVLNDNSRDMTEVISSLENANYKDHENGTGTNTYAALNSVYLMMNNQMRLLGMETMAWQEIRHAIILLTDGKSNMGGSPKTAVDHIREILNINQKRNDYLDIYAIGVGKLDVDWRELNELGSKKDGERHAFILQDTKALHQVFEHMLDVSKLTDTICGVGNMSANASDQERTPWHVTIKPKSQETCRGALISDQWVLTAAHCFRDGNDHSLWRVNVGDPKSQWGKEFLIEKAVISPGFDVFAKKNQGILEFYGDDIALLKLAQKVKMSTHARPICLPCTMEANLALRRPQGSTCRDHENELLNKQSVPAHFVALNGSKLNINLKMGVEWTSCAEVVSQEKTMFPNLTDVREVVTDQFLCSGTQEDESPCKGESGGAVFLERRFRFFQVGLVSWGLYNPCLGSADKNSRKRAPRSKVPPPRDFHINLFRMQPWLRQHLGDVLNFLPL
Protocol: as §3

C5 = target: T4, C5 (Homo sapiens, UniProt P01031); assay: as above; conditions: compound 100 microgm/mL; protein 32 ng/mL
T4 construct: purchased Complement technology Inc., Tyler, TX
Protocol: as §3

C3 = target: T5, C3 (Homo sapiens, UniProt P01024); assay: as above; conditions: compound 100 microgm/mL; protein 32 ng/mL
T5 construct: purchased Sigma, St. Louis, MO
Protocol: as §3

C8 = target: T6, C8 (Homo sapiens, UniProt P07357+P07358+P07360); assay: as above; conditions: compound 100 microgm/mL; protein 32 ng/mL
T6 construct: purchased Sigma, St. Louis, MO
Protocol: as §3

Factor B = target: T7, Factor B (Homo sapiens, UniProt P00751); assay: as above; conditions: compound 100 microgm/mL; protein 32 ng/mL
T7 construct: purchased Sigma, St. Louis, MO
Protocol: as §3

C6 = target: T8, C6 (Homo sapiens, UniProt P13671); assay: as above; conditions: compound 100 microgm/mL; protein 32 ng/mL
T8 construct: purchased Sigma, St. Louis, MO
Protocol: as §3

properdin = target: T9, properdin (Homo sapiens, UniProt P27918); assay: as above; conditions: compound 100 microgm/mL; only background fluorescence
T9 construct: purchased Quidel, San Diego, CA
Protocol: as §3

Factor D = target: T10, Factor D (Homo sapiens, UniProt P00746); assay: as above; conditions: compound 100 microgm/mL; protein immobilized 1-32 ng/mL
T10 construct: purchased Quidel, San Diego, CA
Protocol: as §3

C7 = target: T11, C7 (Homo sapiens, UniProt P10643); assay: as above; conditions: compound 100 microgm/mL; protein 32 ng/mL
T11 construct: purchased Quidel, San Diego, CA
Protocol: as §3

[6] = target: T1, C5b-9 membrane attack complex; assay: Western blot of membrane attack complex assembly stage with C6, C7, C8, C9 antibodies (FIG. 4B); type: cell-based; conditions: western blots probed with antibodies to C6, C7, C8 and C9
Protocol: To determine at which stage of the complement cascade blockade was occurring, a variation of the CH50 assay was carried out. Instead of measuring hemolysis, western blot analyses of red blood cell membranes were carried out to determine which serum complement proteins were converted into activated complement products that became attached to susceptible membranes. Such attachment only occurs up to the stage of blockade. At stages beyond the blockade, they remain unchanged in the serum. Undiluted human serum was treated for 30 min with DAS-1, DAS-2, or acetyl salicylic acid. Then antibody-conjugated red blood cells in an equal volume were added. The mixtures were incubated at 37° C. for 1 h. They were then treated with a lysis buffer followed by a loading buffer for western blots. Equal amounts of protein from each sample were loaded onto gels and separated by 10% SDS-PAGE. Following SDS-PAGE, proteins were transferred to a PVDF membrane. The membranes were then treated with various primary antibodies followed by labeled secondary antibodies using well established techniques. Bands recognized by the antibodies were visualized by use of an enhanced chemiluminescence system and exposure to photographic film. […] The C6 antibody detected C5b6, C5b67, and C5b678. The C7 antibody detected C5b67 and C5b678, while the C8 antibody detected C5b678. […]

[7] = test system: classical complement pathway; assay: CH50 assay, hemolysis of sensitized human red blood cells by zymosan-activated dog serum; type: cell-based; conditions: Canis lupus familiaris, Erythrocyte, read-out: IC50, protection of human red blood cells from complement attack
Protocol: as §1, §2

T1 sequence (P02748 22-559, one chain of several): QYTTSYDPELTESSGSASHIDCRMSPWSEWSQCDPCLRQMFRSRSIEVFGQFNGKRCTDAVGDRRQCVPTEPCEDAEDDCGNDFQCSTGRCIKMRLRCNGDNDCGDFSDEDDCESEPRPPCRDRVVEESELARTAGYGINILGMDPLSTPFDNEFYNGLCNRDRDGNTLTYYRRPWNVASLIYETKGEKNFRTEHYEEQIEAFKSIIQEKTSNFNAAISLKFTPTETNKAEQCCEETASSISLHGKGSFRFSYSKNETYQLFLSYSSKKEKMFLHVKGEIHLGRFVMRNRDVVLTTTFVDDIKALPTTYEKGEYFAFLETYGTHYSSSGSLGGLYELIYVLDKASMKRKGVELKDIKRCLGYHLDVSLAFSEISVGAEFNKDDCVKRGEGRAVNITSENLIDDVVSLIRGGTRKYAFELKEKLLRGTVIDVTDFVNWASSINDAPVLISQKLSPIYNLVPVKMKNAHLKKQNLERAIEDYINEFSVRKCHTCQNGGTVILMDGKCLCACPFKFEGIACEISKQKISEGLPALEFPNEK
T4 sequence (P01031 19-1676): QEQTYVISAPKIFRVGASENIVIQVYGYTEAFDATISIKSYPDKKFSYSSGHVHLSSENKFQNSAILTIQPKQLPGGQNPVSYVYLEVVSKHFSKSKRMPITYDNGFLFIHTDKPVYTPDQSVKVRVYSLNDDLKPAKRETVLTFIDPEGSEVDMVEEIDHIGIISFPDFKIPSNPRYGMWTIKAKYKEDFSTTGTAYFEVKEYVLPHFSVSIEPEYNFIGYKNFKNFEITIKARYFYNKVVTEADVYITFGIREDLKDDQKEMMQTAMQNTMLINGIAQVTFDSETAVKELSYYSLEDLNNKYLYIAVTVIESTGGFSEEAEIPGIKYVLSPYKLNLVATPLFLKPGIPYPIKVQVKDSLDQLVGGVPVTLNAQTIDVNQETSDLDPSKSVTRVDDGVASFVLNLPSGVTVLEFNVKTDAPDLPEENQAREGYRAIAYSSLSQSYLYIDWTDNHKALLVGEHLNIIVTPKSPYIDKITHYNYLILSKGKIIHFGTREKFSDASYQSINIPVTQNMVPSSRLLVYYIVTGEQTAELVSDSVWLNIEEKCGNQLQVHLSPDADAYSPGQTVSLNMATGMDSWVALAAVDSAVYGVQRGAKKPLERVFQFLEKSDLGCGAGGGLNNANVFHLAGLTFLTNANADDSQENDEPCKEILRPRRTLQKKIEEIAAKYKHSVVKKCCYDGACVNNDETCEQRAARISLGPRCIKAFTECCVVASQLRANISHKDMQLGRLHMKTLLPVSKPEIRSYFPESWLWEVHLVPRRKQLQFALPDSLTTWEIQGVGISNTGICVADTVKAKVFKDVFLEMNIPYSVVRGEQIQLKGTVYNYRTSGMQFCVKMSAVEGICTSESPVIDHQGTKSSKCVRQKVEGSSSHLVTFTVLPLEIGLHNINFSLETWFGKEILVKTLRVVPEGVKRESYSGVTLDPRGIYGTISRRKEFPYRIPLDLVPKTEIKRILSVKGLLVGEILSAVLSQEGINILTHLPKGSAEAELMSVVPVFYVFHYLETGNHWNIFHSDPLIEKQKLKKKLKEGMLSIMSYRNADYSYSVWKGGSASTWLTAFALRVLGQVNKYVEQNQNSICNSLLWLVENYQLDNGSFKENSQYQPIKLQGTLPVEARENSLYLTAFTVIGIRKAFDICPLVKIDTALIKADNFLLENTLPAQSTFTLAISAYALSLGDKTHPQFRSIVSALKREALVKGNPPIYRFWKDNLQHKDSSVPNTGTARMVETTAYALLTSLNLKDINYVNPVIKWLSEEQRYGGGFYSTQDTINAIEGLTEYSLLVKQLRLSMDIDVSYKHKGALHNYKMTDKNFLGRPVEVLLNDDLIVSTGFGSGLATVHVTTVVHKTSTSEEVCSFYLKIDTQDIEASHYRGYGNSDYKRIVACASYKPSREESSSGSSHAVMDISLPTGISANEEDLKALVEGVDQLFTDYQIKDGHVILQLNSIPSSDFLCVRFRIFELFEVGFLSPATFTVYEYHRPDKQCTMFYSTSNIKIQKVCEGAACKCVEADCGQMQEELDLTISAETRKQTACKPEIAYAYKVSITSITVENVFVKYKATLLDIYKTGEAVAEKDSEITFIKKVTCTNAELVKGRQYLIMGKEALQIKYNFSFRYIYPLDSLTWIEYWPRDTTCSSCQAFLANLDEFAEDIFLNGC
T2 sequence (P02748 22-559): as the sequence (P02748 22-559, one chain of several) above
T11 sequence (P10643 23-843): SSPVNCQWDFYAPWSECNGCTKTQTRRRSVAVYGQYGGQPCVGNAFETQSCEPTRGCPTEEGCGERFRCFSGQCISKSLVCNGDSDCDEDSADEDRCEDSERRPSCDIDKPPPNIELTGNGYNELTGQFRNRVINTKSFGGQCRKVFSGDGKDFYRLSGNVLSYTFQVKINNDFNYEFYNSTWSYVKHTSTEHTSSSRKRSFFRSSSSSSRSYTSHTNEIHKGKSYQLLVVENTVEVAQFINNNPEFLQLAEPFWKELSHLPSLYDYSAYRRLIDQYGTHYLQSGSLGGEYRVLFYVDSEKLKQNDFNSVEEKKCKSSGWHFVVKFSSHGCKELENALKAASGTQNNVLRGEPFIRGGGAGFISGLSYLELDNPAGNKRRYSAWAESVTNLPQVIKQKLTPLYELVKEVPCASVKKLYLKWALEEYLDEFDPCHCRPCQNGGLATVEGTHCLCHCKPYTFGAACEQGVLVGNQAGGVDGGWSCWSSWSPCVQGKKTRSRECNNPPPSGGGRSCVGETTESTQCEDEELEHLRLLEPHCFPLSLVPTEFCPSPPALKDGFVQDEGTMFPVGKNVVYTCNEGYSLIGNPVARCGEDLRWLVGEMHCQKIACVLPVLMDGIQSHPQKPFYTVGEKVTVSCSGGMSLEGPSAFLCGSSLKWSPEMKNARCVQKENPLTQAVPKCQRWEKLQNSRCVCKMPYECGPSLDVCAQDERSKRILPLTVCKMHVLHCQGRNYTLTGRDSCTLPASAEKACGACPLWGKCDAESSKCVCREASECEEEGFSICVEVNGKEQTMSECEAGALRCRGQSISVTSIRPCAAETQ
T6 sequence (P07357 31-584): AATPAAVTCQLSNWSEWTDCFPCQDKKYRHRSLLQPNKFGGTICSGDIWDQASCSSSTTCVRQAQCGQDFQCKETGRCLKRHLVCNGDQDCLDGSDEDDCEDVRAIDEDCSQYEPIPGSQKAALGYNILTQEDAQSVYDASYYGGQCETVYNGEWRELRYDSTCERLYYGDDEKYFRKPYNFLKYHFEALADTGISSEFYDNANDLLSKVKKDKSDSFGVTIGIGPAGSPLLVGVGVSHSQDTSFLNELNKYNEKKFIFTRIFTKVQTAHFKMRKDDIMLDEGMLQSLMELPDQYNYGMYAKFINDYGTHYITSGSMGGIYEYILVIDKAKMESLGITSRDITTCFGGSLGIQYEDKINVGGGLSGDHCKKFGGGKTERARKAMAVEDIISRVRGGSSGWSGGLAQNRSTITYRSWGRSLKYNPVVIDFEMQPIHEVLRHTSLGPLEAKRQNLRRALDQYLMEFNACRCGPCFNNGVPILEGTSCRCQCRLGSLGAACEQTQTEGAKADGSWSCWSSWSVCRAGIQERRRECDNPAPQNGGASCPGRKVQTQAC
T6 sequence (P07358 55-591): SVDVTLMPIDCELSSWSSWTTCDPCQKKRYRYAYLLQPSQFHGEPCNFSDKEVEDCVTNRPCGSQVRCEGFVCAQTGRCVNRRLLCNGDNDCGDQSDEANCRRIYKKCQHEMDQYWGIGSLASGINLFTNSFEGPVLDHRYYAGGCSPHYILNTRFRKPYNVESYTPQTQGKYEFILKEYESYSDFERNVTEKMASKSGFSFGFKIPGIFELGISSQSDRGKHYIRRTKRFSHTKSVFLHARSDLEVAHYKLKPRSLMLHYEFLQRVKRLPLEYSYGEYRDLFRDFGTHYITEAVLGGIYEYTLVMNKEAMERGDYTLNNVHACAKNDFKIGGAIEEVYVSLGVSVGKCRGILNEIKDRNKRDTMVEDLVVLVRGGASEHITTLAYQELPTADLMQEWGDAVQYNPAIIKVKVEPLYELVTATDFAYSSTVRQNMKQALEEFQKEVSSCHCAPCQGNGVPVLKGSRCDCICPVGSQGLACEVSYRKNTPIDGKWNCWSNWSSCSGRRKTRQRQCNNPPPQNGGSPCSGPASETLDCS
T6 sequence (P07360 21-202): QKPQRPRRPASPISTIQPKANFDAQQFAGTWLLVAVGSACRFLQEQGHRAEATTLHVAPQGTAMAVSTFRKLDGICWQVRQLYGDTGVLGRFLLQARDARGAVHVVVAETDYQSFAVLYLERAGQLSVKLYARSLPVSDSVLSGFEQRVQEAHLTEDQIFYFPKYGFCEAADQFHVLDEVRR

| Structure (SMILES) | bands for the opsonization steps versus unprotected lane [2] | detection of membrane attack complex on red cell membranes [2] | hemolysis of red cells [2] | bands for PC3bBb and PC3bBbC3b on RBC membranes [3] | bands for the earlier steps of PC3b and PC3bB on RBC membranes [3] | binding to C4 (C4) | binding to C9 (C9) | binding to C2 (C2) | binding to C5 (C5) | binding to C3 (C3) | binding to C8 (C8) | binding to Factor B (Factor B) | binding to C6 (C6) | binding to properdin (properdin) | binding to Factor D (Factor D) | binding to C7 (C7) | stage at which membrane attack complex formation is arrested [6] | further results |
| --- | --- | --- | --- | --- | --- | --- | --- | --- | --- | --- | --- | --- | --- | --- | --- | --- | --- | --- |
| CC(=O)Oc1ccccc1C(=O)O [acetylsalicylic acid, reference compound] | – | – | – | – | – | – | – | – | – | – | – | – | – | – | – | – | – | protective effect against hemolysis (FIG. 3C) ([1]; added at 1 mM, serum species not singled out (FIG. 3 covers human, rat, cat, dog)): no protective effect |
| CC(=O)Oc1ccc(-c2ccc(OC(C)=O)c(C(=O)O)c2)cc1C(=O)O [DAS-1, 4,4′-diacetoxy-[1,1′-biphenyl]-3,3′-dicarboxylic acid] | Identical bands | not detected | not hemolyzed | did not form | strong bands | did not bind | bound strongly | did not bind | did not bind | did not bind | did not bind | did not bind | did not bind | no binding | bound strongly | did not bind | arrested at the C8 stage | IC50 ([1]; 1 hour at 37° C., OD 405 nm): 208 nM; IC50 ([4]; 1 hour at 37° C., OD 405 nm): 168 nM; IC50 ([5]; 1 hour at 37° C., OD 405 nm): 294 nM; IC50 ([7]; 1 hour at 37° C., OD 405 nm): 142 nM |
| CC(=O)Oc1ccc(Cc2ccc(OC(C)=O)c(C(=O)O)c2)cc1C(=O)O [DAS-2, 5,5′-methylenebis(2-acetoxybenzoic acid)] | Identical bands | not detected | not hemolyzed | did not form | strong bands | did not bind | bound strongly | did not bind | did not bind | did not bind | did not bind | did not bind | did not bind | no binding | bound strongly | did not bind | same results as in lane 3 | IC50 ([1]; unit inferred): 113 nM; IC50 ([4]; unit inferred): 128 nM; IC50 ([5]; unit inferred): 167 nM; IC50 ([7]; unit inferred): 98 nM |
